Test results taken from ChEMBL document CHEMBL2150872, “A transcription factor hijacking to regulate RARα by using a chimeric molecule of retinoic acid and a DNA alkylator” (Bioorg Med Chem Lett, 2011).
Calls of active or inactive are those of the source. The rule behind the calls is not given here.

Columns and labels:
[1] = Induction of RARalpha recruitment to [gamma-32P]-5'-end labeled pUC18 DNA fragment at 10 mM after 30 mins by EMSA
[2] = target: T1, Retinoic acid receptor alpha (Homo sapiens) (UniProt P10276); assay: Inhibition of transactivation of RARalpha overexpressed in COS cells after 24 hrs by luciferase reporter gene assay in presence of ATRA; assay type: cell-based
T1 sequence (whole entry): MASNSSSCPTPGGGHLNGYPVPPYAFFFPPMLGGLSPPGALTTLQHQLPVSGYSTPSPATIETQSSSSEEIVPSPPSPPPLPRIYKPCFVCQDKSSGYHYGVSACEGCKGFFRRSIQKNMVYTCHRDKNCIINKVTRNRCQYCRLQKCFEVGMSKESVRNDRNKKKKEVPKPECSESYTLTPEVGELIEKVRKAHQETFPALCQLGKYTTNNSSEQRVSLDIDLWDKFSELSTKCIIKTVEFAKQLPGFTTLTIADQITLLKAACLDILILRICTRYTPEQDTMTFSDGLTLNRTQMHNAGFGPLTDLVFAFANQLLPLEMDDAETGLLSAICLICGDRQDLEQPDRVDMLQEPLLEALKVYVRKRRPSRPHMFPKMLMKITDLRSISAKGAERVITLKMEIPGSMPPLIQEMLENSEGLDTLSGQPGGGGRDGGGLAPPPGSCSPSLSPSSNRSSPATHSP

[3] = target: T1, Retinoic acid receptor alpha (Homo sapiens); assay: Displacement of [3H]ATRA from RARalpha overexpressed in COS cell extract at 10 nM after 12 hrs by liquid scintillation counting; assay type: cell-free
Nucleic Acid [4] = assay: Binding affinity to [gamma-32P]-5'-end labeled pUC18 DNA fragment by autoradiography; assay type: nucleic-acid assay
[5] = target: T1, Retinoic acid receptor alpha (Homo sapiens); assay: Displacement of [3H]ATRA from RARalpha overexpressed in COS cell extract after 12 hrs by liquid scintillation counting; assay type: cell-free
Nucleic Acid [6] = assay: Binding affinity to [gamma-32P]-5'-end labeled pUC18 DNA fragment assessed as alkylation at N7 positions of guanine base by strand-breakage assay; assay type: nucleic-acid assay
[7] = Induction of RARalpha recruitment to [gamma-32P]-5'-end labeled pUC18 DNA fragment at 1 mM after 30 mins by EMSA

| SMILES | Activity [1] | inhibition [2] | Activity [3] | Activity (Nucleic Acid [4]) | Activity [5] | Activity (Nucleic Acid [6]) | Activity [7] |
| --- | --- | --- | --- | --- | --- | --- | --- |
| CC1=C(/C=C/C(C)=C/C=C/C(C)=C/C(=O)NCCCc2ccc(N(CCCl)CCCl)cc2)C(C)(C)CCC1 | Active | Dose-dependent effect | Active | Active | Dose-dependent effect | Active |  |
| O=C(O)CCCc1ccc(N(CCCl)CCCl)cc1 |  |  |  |  |  | Active | inactive |
